Earlier results, collected in patent US20070219192A1, “Certain chemical entities, compositions, and methods” (priority 2005, published 2007).

test system: A549 cells; settings: data provided by National Cancer Institute, Developmental Therapeutic Program

| SMILES | GI50 [µM] |
| --- | --- |
| O=c1[nH]cc(F)c(=O)[nH]1 [5-fluorouracil] | 1 |
| COc1cccc2c1C(=O)c1c(O)c3c(c(O)c1C2=O)C[C@@](O)(C(=O)CO)C[C@@H]3O[C@H]1C[C@H](N)[C@H](O)[C@H](C)O1 [doxorubicin] | 0.063 |
| NC(=O)NO [hydroxyurea] | 500 |
| CC(=O)O[C@H]1C(=O)[C@@]2(C)[C@H]([C@H](OC(=O)c3ccccc3)[C@]3(O)C[C@H](OC(=O)[C@H](O)[C@@H](NC(=O)c4ccccc4)c4ccccc4)C(C)=C1C3(C)C)[C@]1(OC(C)=O)CO[C@@H]1C[C@@H]2O [paclitaxel] | 0.004 |
